What was measured:
[1] = test system: C2C12 cells expressing GFP-MG53; test: Repair of acute membrane damage: translocation to microelectrode injury site; format: cell-based, murine; conditions: for Membrane Repair (+Zn-HPT): 2 μM Zn-HPT; for Membrane Repair (−Zn-HPT): extracellular solution with nominal free zinc
Method: To follow the process of intracellular vesicle translocation associated with repair of acute membrane damage, GFP-MG53 fusion protein was expressed in C2C12 myoblast cells (FIG. 21a). […]
Cell culture—The C2C12 murine myoblast cell line used for all studies was purchased from the American Type Culture Collection (Manassas, Va.). Cells were grown in a humidified environment at 37° C. and 5% CO2 in DMEM medium for C2C12 or Ham's F12 medium for CHO cells supplemented with 10% fetal bovine serum, 100 units/ml penicillin and 100 ug/ml streptomycin. In order to induce myotube differentiation, C2C12 myoblasts were grown to confluence and the medium was switched to DMEM containing 2% horse serum, penicillin (100 U/ml), streptomycin (100 μg/ml). For transient transfections, C2C12 myoblasts or CHO cells were plated at 70% confluence in glass-bottom dishes. After 24 hours, cells were transfected with plasmids described above using GeneJammer reagent (Stratagene). Cells were visualized by live cell confocal imaging at 24-48 hours after transfection or at times indicated for individual experiments. In some experiments, C2C12 myoblasts were allowed to differentiate into myotubes for the indicated time before observation.
Live cell imaging—To monitor intracellular trafficking of GFP-MG53 either CHO or C2C12 cells were cultured in glass-bottom dishes (Bioptechs Inc.) and transfected with the plasmids described above. Fluorescence images (512×512) were captured at 3.18 s/frame using a BioRad 2100 Radiance laser scanning confocal microscope with a 63×1.3NA oil immersion objective.

[2] = test system: FDB muscle fibers from wild type (WT) mice; test: FM1-43 dye entry after UV-laser damage, wild type FDB muscle fibers; format: cell-based
Method: (§1) FIG. 20. Protective effect of zinc on membrane repair is lost in mg53−/− skeletal muscle. (a) individual flexor digitorum brevis (FDB) muscle fibers were isolated from wild type (WT) mice (3-6 months). A strong UV laser was applied to the FDB fiber that caused local damage to the muscle (arrow). Entry of FM1-43 fluorescent dye (2.5 μM) was used as an indicator for the measurement of membrane repair capacity. The images were taken 200 s following UV irradiation (control). […] (d) Schematic diagram of zinc-binding motifs in MG53. The amino-terminus of MG53 contains two putative zinc-binding motifs: one located at the RING motif (a.a. 1-56, human cDNA), and the other located at the B-box motif (a.a. 86-117, human cDNA). The specific amino acids that participate in zinc-binding are indicated.
as §1, with “Protective” for “FIG. 20. Protective”, “To access membrane repair capacity,” for “(a)”, “months) (FIG. 20a).” for “months).”, “Summary data for panel a and b (FIG. 20c). […]” for “(d)”, “indicated (FIG. 20d).” for “indicated.”

[3] = test system: FDB muscle fibers from mg53−/− mice; test: FM1-43 dye entry after UV-laser damage, mg53−/− FDB muscle fibers; format: cell-based
Method: as §1
as §1, with “Protective” for “FIG. 20. Protective”, “To access membrane repair capacity,” for “(a)”, “months) (FIG. 20a).” for “months).”, “Summary data for panel a and b (FIG. 20c). […]” for “(d)”, “indicated (FIG. 20d).” for “indicated.”

HEK293 cells = test: LDH release after glass microbead damage, HEK293; format: cell-based, human
Method: Recombinant MG53 can protect kidney cells from mechanical cell membrane damage. HEK293 cells (8×10^4) were treated with glass microbeads to induce mechanical damage (FIG. 37). Different does of recombinant human MG53 or vehicle control was applied to the samples when glass beads were added to the media. Cells were rotated on an orbital shaker and then the supernatant was analyzed for LDH levels.
(§2) Externally applied recombinant MG53 requires phosphatidylserine (PS) binding to reseal damaged membranes. HEK293 cells were treated with recombinant human MG53 or vehicle and them damaged by shaking in the presence of glass microbeads (black bars) (FIG. 40). Membrane damage is measured by LDH release from cells that is recorded by colormetric assay recorded at 488 nm. […] Thus, MG53 must be able to bind exposed PS on damaged cells in order to facilitate membrane repair. * p<0.05
as §2, with “HEK293” for “Externally applied recombinant MG53 requires phosphatidylserine (PS) binding to reseal damaged membranes. HEK293”, “41).” for “40).”

mg53−/− myotubes = test: Membrane repair in transfected mg53−/− myotubes; format: cell-based, mice; conditions: transfected mg53−/− myotubes; UV injury
Excerpt: The entry of FM4-64, a red-shifted variant of FM1-43, was used as an index of membrane repair capacity in mg53−/− myotubes transfected with GFP-MG53 and GFP-C242A. Following UV-bleaching of the green fluorescence, rapid translocation of GFP-MG53 took place at the injury site, whereas GFP-C242A remained static due to its defective oligomerization properties (FIG. 16E, 17A).
Similar defects with GFP-C29L were also observed in C2C12 myotubes (FIG. 18e, middle).

[4] = C2C12 cells, listed as GFP-C105S
[5] = C2C12 cells, listed as GFP-C29L/C105S

Question: For O[C@H](CS)[C@H](O)CS (racemic) [DTT, dithiothreitol, reference compound], which “translocation of GFP-MG53 toward the injury site” value ([1]; reduced extracellular environment (+DTT), 5 mM DTT) is on record?
Answer: The value was “largely disrupted”.

Question: What about the “membrane resealing (entry of FM-143 dye)” value ([2]; isolated muscle fibers, DTT in the extracellular solution) of the same molecule?
Answer: The value was “prevents membrane resealing”.

Question: How did the “membrane repair capacity (FM1-43 dye entry)” value ([2]; WT muscle, Ca-EDTA 100 μM) turn out when O=C([O-])CN(CCN(CC(=O)[O-])CC(=O)[O-])CC(=O)[O-].[Ca+2].[Na+].[Na+] [Ca-EDTA] was run?
Answer: Its value is “compromised membrane repair capacity”.

Question: And the membrane repair capacity ([3]; mg53−/− muscle, Ca-EDTA)?
Answer: Its membrane repair capacity is “did not produce any significant changes in membrane repair capacity”.

Question: Which results are given for c1ccc(CN(CCN(Cc2ccccn2)Cc2ccccn2)Cc2ccccn2)nc1 [TPEN, N,N,N,N-tetrakis(2-pyridyl-methyl)ethylenediamine]?
Answer: translocation of GFP-MG53 containing vesicles toward the mechanical injury site ([1]; 20 μM TPEN in the extracellular solution): completely abolished the translocation; membrane repair capacity (FM1-43 dye entry) ([2]; WT fibers, 40 μM TPEN): compromised membrane repair capacity; membrane repair capacity (FM1-43 dye entry) ([3]; mg53−/− fibers, +TPEN): did not produce more entry of FM1-43 dye

Question: Thimerosal [reference compound] was tested. Which “translocation of GFP-MG53 to injury sites” value ([1]; oxidizing agent Thimerosal in the extracellular solution) did it give?
Answer: The value was “increased translocation”.

Question: Which “effect on MG53 resealing of plasma membrane” value (HEK293 cells; simultaneous treatment with recombinant human MG53) does the source give for “phosphatidylserine [phosphatidylserine (PS), reference compound]” here?
Answer: The value was “can prevent resealing of plasma membrane”.

B1: C242A: MG53 mutant, conserved cysteine 242 mutated into alanine (protein)
chain: MSAAPGLLRQELSCPLCLQLFDAPVTAECGHSFCRACLIRVAGEPAADGTVACPCCQAPTRPQALSTNLQLSRLVEGLAQVPQGHCEEHLDPLSIYCEQDRTLVCGVCASLGSHRGHRLLPAAEAQARLKTQLPQQKMQLQEACMRKEKTVAVLEHQLVEVEETVRQFRGAVGEQLGKMRMFLAALESSLDREAERVRGDAGVALRRELSSLNSYLEQLRQMEKVLEEVADKPQTEFLMKFALVTSRLQKILSESPPPARLDIQLPVISDDFKFQVWKKMFRALMPALEELTFDPSSAHPSLVVSSSGRRVECSDQKAPPAGEDTRQFDKAVAVVAQQLLSQGEHYWEVEVGDKPRWALGVMAADASRRGRLHAVPSQGLWLLGLRDGKILEAHVEAKEPRALRTPERPPARIGLYLSFADGVLAFYDASNPDVLTPIFSFHERLPGPVYPIFDVCWHDKGKNAQPLLLVGPEQEQA
modifications: left off: large carriers
notes: MG53 mutant, conserved cysteine 242 mutated into alanine
Question: With B1 as the molecule, how does the “translocation to injury site and membrane repair function of GFP fusion protein” value ([1]; C2C12 cells, acute membrane damage) read?
Answer: Its value is “completely disrupted its ability to facilitate the membrane repair process”.

Question: And the “sarcolemmal membrane repair function” value ([2]; overexpression in adult wt muscle fibers, compared with GFP-MG53)?
Answer: The value was “inhibited sarcolemmal membrane repair function”.

Question: What about the “entry of FM4-64 (membrane repair capacity)” value (mg53−/− myotubes) of the same molecule?
Answer: The value was “not able to restore membrane integrity following injury”.

B2: C105S: MG53 single mutation of the B-box motif (protein)
chain: MSAAPGLLRQELSCPLCLQLFDAPVTAECGHSFCRACLIRVAGEPAADGTVACPCCQAPTRPQALSTNLQLSRLVEGLAQVPQGHCEEHLDPLSIYCEQDRTLVSGVCASLGSHRGHRLLPAAEAQARLKTQLPQQKMQLQEACMRKEKTVAVLEHQLVEVEETVRQFRGAVGEQLGKMRMFLAALESSLDREAERVRGDAGVALRRELSSLNSYLEQLRQMEKVLEEVADKPQTEFLMKFCLVTSRLQKILSESPPPARLDIQLPVISDDFKFQVWKKMFRALMPALEELTFDPSSAHPSLVVSSSGRRVECSDQKAPPAGEDTRQFDKAVAVVAQQLLSQGEHYWEVEVGDKPRWALGVMAADASRRGRLHAVPSQGLWLLGLRDGKILEAHVEAKEPRALRTPERPPARIGLYLSFADGVLAFYDASNPDVLTPIFSFHERLPGPVYPIFDVCWHDKGKNAQPLLLVGPEQEQA
modifications: left off: large carriers
notes: MG53 single mutation of the B-box motif
Question: What does the source list for B2?
Answer: Membrane Repair (+Zn-HPT) [1, 4]: partial rescue of the membrane repair capacity; Membrane Repair (−Zn-HPT) [1, 4]: could not move to the acute injury site

B3: C29L/C105S: MG53 double mutant of RING motif (C29L) and B-box motif (C105S) (protein)
chain: MSAAPGLLRQELSCPLCLQLFDAPVTAELGHSFCRACLIRVAGEPAADGTVACPCCQAPTRPQALSTNLQLSRLVEGLAQVPQGHCEEHLDPLSIYCEQDRTLVSGVCASLGSHRGHRLLPAAEAQARLKTQLPQQKMQLQEACMRKEKTVAVLEHQLVEVEETVRQFRGAVGEQLGKMRMFLAALESSLDREAERVRGDAGVALRRELSSLNSYLEQLRQMEKVLEEVADKPQTEFLMKFCLVTSRLQKILSESPPPARLDIQLPVISDDFKFQVWKKMFRALMPALEELTFDPSSAHPSLVVSSSGRRVECSDQKAPPAGEDTRQFDKAVAVVAQQLLSQGEHYWEVEVGDKPRWALGVMAADASRRGRLHAVPSQGLWLLGLRDGKILEAHVEAKEPRALRTPERPPARIGLYLSFADGVLAFYDASNPDVLTPIFSFHERLPGPVYPIFDVCWHDKGKNAQPLLLVGPEQEQA
modifications: left off: large carriers
Question: Which “Membrane Repair (+Zn-HPT)” value [1, 5] does the source give for B3 here?
Answer: Its value is “completely defective in repair of acute membrane damage”.

Question: And the “Membrane Repair (−Zn-HPT)” value [1, 5]?
Answer: The value was “completely defective in repair of acute membrane damage”.

B4: Annexin V: a phosphatidylserine (PS) binding protein (protein, UniProt P08758 2-320, looked up)
Annexin A5: AQVLRGTVTDFPGFDERADAETLRKAMKGLGTDEESILTLLTSRSNAQRQEISAAFKTLFGRDLLDDLKSELTGKFEKLIVALMKPSRLYDAYELKHALKGAGTNEKVLTEIIASRTPEELRAIKQVYEEEYGSSLEDDVVGDTSGYYQRMLVVLLQANRDPDAGIDEAQVEQDAQALFQAGELKWGTDEEKFITIFGTRSVSHLRKVFDKYMTISGFQIEETIDRETSGNLEQLLLAVVKSIRSIPAYLAETLYYAMKGAGTDDHTLIRVMVSRSEIDLFNIRKEFRKNFATSLYSMIKGDTSGDYKKALLLLCGEDD
Question: How did the “effect on MG53 resealing of plasma membrane” value (HEK293 cells; excess (5:1), simultaneous with recombinant human MG53) turn out when B4 was run?
Answer: Its value is “can prevent resealing of plasma membrane”.
